Results from US9132103B2, “Disinfecting agent comprising eugenol, terpineol and thymol” (Conopco, Inc., priority 2009, dated 2015).

Tested on: E. coli ATCC 10536
Test: Bacterial kill after 15 seconds of contact (viable E. coli count by neutralization, serial dilution and plating)
Format: cell-based
Settings: log10 of viable E. coli remaining after 15 seconds of contact; about 10^7 cells; water carrier; Table 2
Description: About 10^7 bacterial cells (E. coli ATCC 10536) were taken in a test tube and contacted with various compositions for a period of 15 seconds. Bacteria were taken out after 15 seconds of contact and presence of viable cells was determined by neutralization of the antimicrobial, serial dilution and plating on agar plates. The data is presented in Table-1 as log (Viable E. Coli) which is the log10 of the number of viable E. coli remaining after 15 seconds of contact. Thus if 10^4 remained, log (Viable E. coli) is 4.
The data in Table-1 is an average result of four experiments.
Various compositions as shown in Table-2 were prepared using the same procedure as used for examples 1 to 3 and the antibacterial efficacy was evaluated using the same procedure as used to evaluate Examples 1 to 3. The data on antibacterial efficacy is represented in Table-2.
Compositions as summarized in Table-3 were prepared using a similar procedure as used for Examples 1 to 3 and the antibacterial efficacy was evaluated using a procedure similar to that used for Examples 1 to 3.
The various compositions were diluted with water in a ratio of composition:water of 1:400 and then tested for antibacterial efficacy. The procedure used was similar to that used for Examples 1 to 3.
Soap bar compositions were prepared as per conventional procedure for preparing milled and plodded soap bars. […]

Molecule	Log (Viable E. coli)
Cc1ccc(C(C)C)c(O)c1 [Example 6, Thymol]	6.5
Terpineol [Example 7]	6.5
